This test has as its system human aortic smooth muscle cells (HASMCs). Briefly: Intracellular NO determination using DAF-FM DA. The class given is cell-based. Particulars: increasing ABH concentrations 1 µM-5 mM.

Consider `N[C@@H](CCCCB(O)O)C(=O)O` [ABH, S-2-amino-6-boronic acid], for which the “intracellular NO and/or N2O3 (DAF-FM DA fluorescence)” value was “the amount of intracellular NO rises with increasing concentrations of ABH”.

The values above are taken from publication PMC3574223 (Bioorganic & medicinal chemistry, 2013).
